The values below come from publication PMC2905291, “A phase I study of the safety and pharmacokinetics of the histone deacetylase inhibitor belinostat administered in combination with carboplatin and/or paclitaxel in patients with solid tumours” (British Journal of Cancer, 2010).

The AUC is concentration integrated over time. Read a high AUC as high exposure. Usually AUC(0-inf) stands for the area under the concentration-time curve extrapolated to infinity. High values mean more exposure, low ones less exposure. One may read the Cmax as the peak of the concentration-time curve. The term half-life denotes how long it takes for the measured level to halve. Read a high half-life as slow loss.

Series [1] in a line: Paclitaxel plasma pharmacokinetics in patients after belinostat (LC-MS/MS, non-compartmental). The format is in vivo, human. The method, then:
(§1) Blood samples for belinostat PK, when administered alone were taken pre-treatment, at the end of infusion and 5 min, 15, 30 min, 1 h, 2, 3 h, 3 h 15 min, 3 h 30 min, 4, 5, 6 h after infusion on days 1 and 3 of cycle 1. Samples for carboplatin or paclitaxel when administered after belinostat, were taken relative to the start of belinostat infusion at 3 h (pre-carboplatin or-paclitaxel), 3 h 15 min, 3 h 30 min, 4, 5 and 6 h in cycle 1 on day 3. In addition, samples were taken for BelCaP when administered together at 6 h 15 min, 6 h 30 min, 7, 8, 9 and 24 h after belinostat on day 3. Belinostat and paclitaxel levels were determined in lithium-heparinised plasma using validated solid-phase extraction high performance liquid chromatograpgy (HPLC)-tandem mass spectrometric detection (MS/MS) methods (Covance, Indianapolis, IN, USA). The lower limit of quantitation was 5 and 10 ng ml^−1 for belinostat and paclitaxel, respectively. Belinostat plasma concentrations were determined at Covance using a validated method involving solid-phase extraction, separation with acetic acid acetonitril gradient on reversed phase C18 silica and MS/MS using penta-deuterated belinostat as the internal standard. Belinostat and the internal standard were detected using negative ion electron spray with the transition from 317 to 143 and 322 to 143 m z^−1, respectively.
Paclitaxel and the internal standard, cephalomannine, are extracted from human plasma by solid-phase extraction on a cyanopropyl solid-phase extraction cartridge. After eluting with the mobile phase, the eluent is directly analysed using liquid chromatography with MS/MS. The standard curve range for this assay is from 10.0 to 2000 ng ml^−1 for paclitaxel, using a plasma sample volume of 0.250 ml.
(§2) Plasma concentration–time curves of all three analytes were analysed by non-compartmental methods using WinNonlin (version 4.0.1 Pharsight Corp., Cary, NC, USA). For all analytes the AUC was estimated from the start of infusion by the logarithmic-linear trapezoidal rule and extrapolated to infinity using the estimated value of the slope of the terminal logarithmic-linear disposition phase. Analysis was carried out on the non-dose-normalised plasma concentration of carboplatin, as dosing had already been normalised per GFR using Calvert's formula ([Calvert et al, 1989]).

Series [2] can be described thus: Carboplatin (platinum by ICP-MS) plasma pharmacokinetics in patients after belinostat and paclitaxel. The format is in vivo, human. The note with it: for AUCall / AUCinf / Cl / Cmax / T1/2 / Vss: mean±s.d. The protocol: as §1
Human plasma samples were analysed for Pt from carboplatin by inductively coupled plasma-mass spectrometry after dilution with 0.01% Triton X-100 in 0.1% nitric acid. The samples were analysed without pre-digestion or extraction directly against matrix-matched standard solutions. Intensity, as counts per second from Pt, mass 195, was measured. Terbium, mass 159, was used as an internal standard. The results were calculated from the net intensity ratio of Pt to internal standard. The standard curve range was 2.00–1000 ng Pt ml^−1 in plasma. Samples above the calibration range were diluted using blank human plasma.
as §2

The subject of series [3] is patients with solid tumours. The conditions noted are these: ref Munster et al, cited from earlier work; for patients who responded: valproic acid with epirubicin, 2009.
The subject of series [4] is patients with advanced solid malignancies. More on the design: method as in Ramalingam et al, 2007a. The note with it: ref Ramalingam et al, 2007a, cited from earlier work.
[5] abbreviates: human, plasma, iv, paclitaxel 175 mg m^−2 i.v. day 3 after belinostat 600 mg m^−2, 6 patients, mean±s.d.
[6] abbreviates: human, plasma, iv, paclitaxel 175 mg m^−2 i.v. day 3 after belinostat 800 mg m^−2, 3 patients, mean±s.d.
[7] abbreviates: human, plasma, iv, paclitaxel 175 mg m^−2 i.v. day 3 after belinostat 1000 mg m^−2, 7 patients, mean±s.d.
Where [8] appears, read: paclitaxel 175 mg m^−2 i.v. day 3 after belinostat 600 mg m^−2, 6 patients, mean±s.d.
Setting [9] is: paclitaxel 175 mg m^−2 i.v. day 3 after belinostat 800 mg m^−2, 3 patients, mean±s.d.
The mark [10] stands for this setting: paclitaxel 175 mg m^−2 i.v. day 3 after belinostat 1000 mg m^−2, 7 patients, mean±s.d.
[11] abbreviates: carboplatin equivalents from total platinum, target AUC 5 i.v. day 3 after belinostat 600 mg m^−2 and paclitaxel, 7 patients.
The mark [12] stands for this setting: carboplatin equivalents from total platinum, target AUC 5 i.v. day 3 after belinostat 800 mg m^−2 and paclitaxel, 3 patients.
The mark [13] stands for this setting: carboplatin equivalents from total platinum, target AUC 5 i.v. day 3 after belinostat 1000 mg m^−2 and paclitaxel, 7 patients.
[14] abbreviates: carboplatin equivalents, target AUC 5 i.v. day 3, Total Mean over all belinostat dose levels.
The mark [15] stands for this setting: valproic acid combined with epirubicin, 2007.
Setting [16] is: vorinostat with carboplatin and paclitaxel, 25 patients treated.

Read-outs that look alike come from different tables or passages of the source.

In series [1] (setting [5]), `CC(=O)O[C@H]1C(=O)[C@@]2(C)[C@H]([C@H](OC(=O)c3ccccc3)[C@]3(O)C[C@H](OC(=O)[C@H](O)[C@@H](NC(=O)c4ccccc4)c4ccccc4)C(C)=C1C3(C)C)[C@]1(OC(C)=O)CO[C@@H]1C[C@@H]2O` [paclitaxel] showed an AUC of 14 ± 2.5 µM·h, an AUC(0-inf) of 14.7 ± 2.6 µM·h, a Cmax of 3.9 ± 0.7 µM and a half-life of 5.7 ± 0.5 h. Moreover, in series [1] (setting [6]), the AUC worked out at 12.8 ± 1.7 µM·h, the AUC(0-inf) came to 13.3 ± 2 µM·h and the half-life was 5.5 ± 1.1 h. Also, in series [1] (setting [7]), the AUC is 14.4 ± 3.8 µM·h, the AUC(0-inf) amounted to 15 ± 4 µM·h and the half-life was 5.5 ± 0.6 h. In series [1] (setting [8]), this molecule had a Cl of 14.3±2.2 l h^−1 m^−2 and a Vss of 56.6±21.2 l m^−2. In series [1] (setting [9]), this molecule had a Cl of 15.7±2.6 l h^−1 m^−2 and a Vss of 53.0±3.0 l m^−2. Besides, in series [1] (setting [10]), the Cl amounted to 14.8±4.9 l h^−1 m^−2 and the Vss is listed as 57.2±31.7 l m^−2. Also, the “effect of concurrent administration on pharmacokinetics” value in series [1] (paclitaxel after belinostat) is “unaltered”.
`N.N.O=C([O-])C1(C(=O)[O-])CCC1.[Pt+2]` [carboplatin]: the “effect of concurrent administration on pharmacokinetics” value in series [2] (carboplatin after belinostat) was “unaltered”. Further, in series [2] (setting [11]), the AUCall came to 7.8 ± 1.4 mg·min/mL, the AUCinf stood at 8.8 ± 1.3 mg·min/mL, the Cl came out at 4.4 ± 0.9 L/h and the Cmax came to 27400 ± 4000 ng/mL. For the same molecule, in series [2] (setting [11]), the T1/2 is 7.8 ± 2.7 h and the Vss came out at 34.3 ± 16.1 L. In series [2] (setting [12]), the AUCall was 8.9 ± 2.1 mg·min/mL, the AUCinf worked out at 9.7 ± 1.9 mg·min/mL, the Cl came to 4.1 ± 0.5 L/h and the Cmax was found to be 32800 ± 11700 ng/mL. In series [2] (setting [12]), the T1/2 amounted to 5.4 ± 1.0 h and the Vss was determined as 21.9 ± 7.6 L. Also, in series [2] (setting [13]), the AUCall was determined as 8.4 ± 1.0 mg·min/mL, the AUCinf worked out at 9.3 ± 1.1 mg·min/mL, the Cl worked out at 3.5 ± 0.8 L/h and the Cmax amounted to 29600 ± 14000 ng/mL. In series [2] (setting [13]), the T1/2 came out at 6.0 ± 0.8 h and the Vss worked out at 20.4 ± 3.5 L. Moreover, in series [2] (setting [14]), the AUCall was determined as 8.2 ± 1.4 mg·min/mL, the AUCinf came out at 9.2 ± 1.3 mg·min/mL, the Cl was 3.9 ± 0.8 L/h and the Cmax is 29200 ± 1000 ng/mL. Moreover, in series [2] (setting [14]), the T1/2 came to 6.6 ± 2.1 h and the Vss came to 26.4 ± 12.5 L.
For `CCCC(CCC)C(=O)O` [valproic acid], in series [3] (setting [15]), the dose-limiting toxicities result is “neurological DLTs”. Moreover, in series [3] (setting [15]), the “grade II–III QTc prolongation, patients” value is “approximately 25%”. Also, the patients who responded was 9 in series [3] (of 41 patients with a variety of solid tumours) and 64% in series [3] (phase II portion, breast cancer).
As for `O=C(CCCCCCC(=O)Nc1ccccc1)NO` [vorinostat], in series [4] (vorinostat with carboplatin and paclitaxel at higher dose than present study), the “grade III/IV neutropenia, patients” value is 50%. For the same molecule, in series [4] (setting [16]), the “patients with PR, head and neck cancer” value was 1; the “patients with PR, non-small-cell lung cancer” value is listed as 10.
